Laboratory results reported in patent publication US20230150924A1, “NOVEL COMPOUND HAVING CANCER METASTASIS INHIBITORY ACTIVITY, PREPARATION METHOD THEREFOR, AND PHARMACEUTICAL COMPOSITION FOR INHIBITING CANCER METASTASIS AND INVASION OR TREATING COLORECTAL CANCER, COMPRISING COMPOUND” (CELLGENTEK CO., LTD., priority 2019, published 2023).

Key:
KAI1 promoter = KAI1 promoter luciferase reporter assay in transfected Caco2 cells; type: cell-based, human; conditions: Homo sapiens, Caco-2, 16 h, 1 μM compound, 16 hours, transfected Caco2 cells, luciferase activity relative to DMSO control (=1); read-out: Relative KAI promoter activity
[1] = test system: invasion of colorectal cancer cells; assay: In vivo relative invation (invasion; EV and KITENIN controls, no method described); conditions: relative to EV (=1); KIT = KITENIN

Compound	fold induction at 1 µM (KAI1 promoter)	In vivo relative invation [1]
O=C(CNC(=O)C1CC1)c1ccc(Cl)cc1 [Example 56, N-(2-(4-chlorophenyl)-2-oxoethyl)cyclopropanecarboxamide]	0.92	1.249
COc1ccc(C(=O)N2CCC(Oc3ccccc3C(=O)NCC(=O)c3ccccc3)CC2)cc1 [Example 173, 2-((1-(4-methoxybenzoyl)piperidin-4-yl)oxy)-N-(2-oxo-2-phenylethyl)benzamide]	1.07	1.121
O=C(CNC(=O)c1ccc(-c2ccccc2)cc1)c1ccccc1 [Example 43, N-(2-oxo-2-phenylethyl)-[1,1′-biphenyl]-4-carboxamide]	1.91	0.9774
O=C(CNC(=O)c1ccccc1OC1CCN(C(=O)c2cccc(Cl)c2)CC1)c1ccccc1 [Example 157, 2-((1-(3-chlorobenzoyl)piperidin-4-yl)oxy)-N-(2-oxo-2-phenylethyl)benzamide]	1.05	1.089
O=C(COc1ccccc1C(=O)NCC(=O)c1ccccc1)Nc1ccc(F)c([N+](=O)[O-])c1 [Example 211]	1.44	0.8699
CN(C)c1ccc(C(=O)CNS(=O)(=O)c2ccc(F)cc2)cc1 [Example 107, N-(2-(4-(dimethylamino)phenyl)-2-oxoethyl)-4-fluorobenzenesulfonamide]	2.07	0.9868
O=C(COc1ccccc1C(=O)NCC(=O)c1ccccc1)Nc1ccccc1 [Example 201, 2-(2-oxo-2-(phenylamino)ethoxy)-N-(2-oxo-2-phenylethyl)benzamide]	1.46	0.9283
CN(C)c1ccc(C(=O)CNC(=O)C2CC2)cc1 [Example 100, N-(2-(4-(dimethylamino)phenyl)-2-oxoethyl)cyclopropanecarboxamide]	1.62	1.094
O=C(CNC(=O)c1cccc([N+](=O)[O-])c1)c1ccccc1 [Example 34, 3-nitro-N-(2-oxo-2-phenylethyl)benzamide]	1.34	1.103
CCCCN(CC)Cc1cccc(C(=O)NCC(=O)c2ccccc2)c1 [Example 249, 3-((butyl(ethyl)amino)methyl)-N-(2-oxo-2-phenylethyl)benzamide]	1.35	1.113
O=C(CNC(=O)c1cccc([N+](=O)[O-])c1)c1ccc(Cl)cc1 [Example 77, N-(2-(4-chlorophenyl)-2-oxoethyl)-3-nitrobenzamide]	0.92	1.274
CN(C)c1ccc(C(=O)CNC(=O)c2ccccc2F)cc1 [Example 90, N-(2-(4-(dimethylamino)phenyl)-2-oxoethyl)-2-fluorobenzamide]	1.88	1.124
CCCCC(=O)NCC(=O)c1ccccc1 [Example 20, N-(2-oxo-2-phenylethyl)pentanamide]	0.99	1.217
C#CN(C)Cc1cccc(C(=O)NCC(=O)c2ccccc2)c1 [Example 251, 3-((ethynyl(methyl)amino)methyl)-N-(2-oxo-2-phenylethyl)benzamide]	2.37	1.197
O=C(CNS(=O)(=O)c1ccc(F)cc1)c1ccc(N2CCOCC2)cc1 [Example 146, 4-fluoro-N-(2-(4-morpholinophenyl)-2-oxoethyl)benzenesulfonamide]	1.16	0.7474
O=C(CNC(=O)C1CCC1)c1ccc(Cl)cc1 [Example 57, N-(2-(4-chlorophenyl)-2-oxoethyl)cyclobutanecarboxamide]	0.94	1.217
O=C(CNC(=O)c1ccc(CN2CCOCC2)cc1)c1ccccc1 [Example 276, 4-(morpholinomethyl)-N-(2-oxo-2-phenylethyl)benzamide]	3.39	1.224
CN(C)c1ccc(C(=O)CNC(=O)c2cccc(Cl)c2)cc1 [Example 94, 3-chloro-N-(2-(4-(dimethylamino)phenyl)-2-oxoethyl)benzamide]	1.81	1.096
Cc1cccc(C(=O)NCC(=O)c2ccc(N(C)C)cc2)c1 [Example 98, N-(2-(4-(dimethylamino)phenyl)-2-oxoethyl)-3-methylbenzamide]	2.64	1.121
CN(C)c1ccc(C(=O)CNC(=O)c2ccco2)cc1 [Example 92, N-(2-(4-(dimethylamino)phenyl)-2-oxoethyl)furan-2-carboxamide]	2.29	1.064
CN(C)c1ccc(C(=O)CNC(=O)c2ccc(F)c(F)c2)cc1 [Example 116, N-(2-(4-(dimethylamino)phenyl)-2-oxoethyl)-3,4ifluorobenzamide]	2.15	1.164

Compound	fold induction at 1 µM (KAI1 promoter)	In vivo relative invation [1]
O=C(CCc1ccccc1)NCC(=O)c1ccccc1 [Example 9, N-(2-oxo-2-phenylethyl)-3-phenylpropanamide]	1.14	0.8419
CN(C)c1ccc(C(=O)CNC(=O)c2ccccc2C(F)(F)F)cc1 [Example 112, N-(2-(4-(dimethylamino)phenyl)-2-oxoethyl)-2-(trifluoromethyl)benzamide]	2.82	0.9835
O=C(CNC(=O)c1ccc(F)cc1Cl)c1ccc(Cl)cc1 [Example 76, 2-chloro-N-(2-(4-chlorophenyl)-2-oxoethyl)-4-fluorobenzamide]	0.83	1.12
O=C(CNC(=O)c1ccccc1CN1CCN(c2ccccc2F)CC1)c1ccccc1 [Example 299, 2-((4-(2-fluorophenyl)piperazin-1-yl)methyl)-N-(2-oxo-2-phenylethyl)benzamide]	2.17	1.068
O=C(CNC(=O)c1ccccc1OCC(=O)N1CCc2ccccc2C1)c1ccccc1 [Example 227, 2-(2-(3,4-dihydroisoquinolin-2 (1H)-yl)-2-oxoethoxy)-N-(2-oxo-2-phenylethyl)benzamide]	1.01	1.153
C=CCNC(=O)COc1ccccc1C(=O)NCC(=O)c1ccccc1 [Example 203, 2-(2-(allylamino)-2-oxoethoxy)-N-(2-oxo-2-phenylethyl)benzamide]	1.05	1.178
Cc1cccc(C(=O)NCC(=O)c2ccccc2)c1 [Example 13, 3-methyl-N-(2-oxo-2-phenylethyl)benzamide]	1.73	0.8565
CCCCC(=O)NCC(=O)c1ccc(N2CCOCC2)cc1 [Example 145, N-(2-(4-morpholinophenyl)-2-oxoethyl)pentanamide]	1.1	1.433
CCN(CCO)Cc1ccc(C(=O)NCC(=O)c2ccccc2)cc1 [Example 274, 4-((ethyl(2-hydroxyethyl)amino)methyl)-N-(2-oxo-2-phenylethyl)benzamide]	5.27	1.219
CN(C)c1ccc(C(=O)CNC(=O)CC(C)(C)C)cc1 [Example 102, N-(2-(4-(dimethylamino)phenyl)-2-oxoethyl)-3,3-dimethylbutanamide]	2.53	1.121
O=C(COc1ccccc1C(=O)NCC(=O)c1ccccc1)Nc1ccccc1Cl [Example 224, 2-(2-((2-chlorophenyl)amino)-2-oxoethoxy)-N-(2-oxo-2-phenylethyl)benzamide]	1.13	1.25
CC(C)Oc1cccc(NC(=O)COc2ccccc2C(=O)NCC(=O)c2ccccc2)c1 [Example 220, 2-(2-((3-isopropoxyphenyl)amino)-2-oxoethoxy)-N-(2-oxo-2-phenylethyl)benzamide]	1.15	0.9324
C=CCN(CC=C)Cc1ccc(C(=O)NCC(=O)c2ccccc2)cc1 [Example 265, 4-((diallylamino)methyl)-N-(2-oxo-2-phenylethyl)benzamide]	1.91	1.343
CN(C)c1ccc(C(=O)CNC(=O)c2ccc(F)cc2Cl)cc1 [Example 115, 2-chloro-N-(2-(4-(dimethylamino)phenyl)-2-oxoethyl)-4-fluorobenzamide]	2.04	1.209
O=C(CNC(=O)c1ccccc1OC1CCN(C(=O)c2ccccc2Cl)CC1)c1ccccc1 [Example 156, 2-((1-(2-chlorobenzoyl)piperidin-4-yl)oxy)-N-(2-oxo-2-phenylethyl)benzamide]	0.99	1.158
COc1ccccc1C(=O)N1CCC(Oc2ccccc2C(=O)NCC(=O)c2ccccc2)CC1 [Example 162, 2-((1-(2-methoxybenzoyl)piperidin-4-yl)oxy)-N-(2-oxo-2-phenylethyl)benzamide]	0.99	1.043
O=C(CNC(=O)c1ccccc1OC1CCN(C(=O)C2CC2)CC1)c1ccccc1 [Example 166, 2-((1-(cyclopropanecarbonyl)piperidin-4-yl)oxy)-N-(2-oxo-2-phenylethyl)benzamide]	1.01	1.094
COc1ccc(CNC(=O)COc2ccccc2C(=O)NCC(=O)c2ccccc2)cc1OC [Example 215, 2-(2-((3,4-dimethoxybenzyl)amino)-2-oxoethoxy)-N-(2-oxo-2-phenylethyl)benzamide]	0.975	1.304
Cc1cc(C)cc(C(=O)NCC(=O)c2ccccc2)c1 [Example 40, 3,5=dimethyl-N-(2-oxo-2-phenylethyl)benzamide]	1	1.173
CC(C)(C)C(=O)NCC(=O)c1ccc(Cl)cc1 [Example 66, N-(2-(4-chlorophenyl)-2-oxoethyl)pivalamide]	0.87	1.168
